The source made the active and inactive calls. No cut-off for these calls is given here. Where a SMILES comes first, the peptide text is derived from it. The star is where a group is joined. Propyl(2R-PamO,3-PamO) = CCCCCCCCCCCCCCCC(=O)OC[C@H](C*)OC(=O)CCCCCCCCCCCCCCC; Palmitoyl = CCCCCCCCCCCCCCCC(=O)*
Tests used:
[1] = target: T1, TLR2/TLR6 (Homo sapiens, UniProt O60603+Q9Y2C9); experiment: Agonist activity at human TLR2/TLR6 expressed in HEK-Blue hTLR2-TLR6 cells by SEAP reporter gene based Quanti-blue assay; assay type: cell-based
T1 sequence (O60603 whole entry): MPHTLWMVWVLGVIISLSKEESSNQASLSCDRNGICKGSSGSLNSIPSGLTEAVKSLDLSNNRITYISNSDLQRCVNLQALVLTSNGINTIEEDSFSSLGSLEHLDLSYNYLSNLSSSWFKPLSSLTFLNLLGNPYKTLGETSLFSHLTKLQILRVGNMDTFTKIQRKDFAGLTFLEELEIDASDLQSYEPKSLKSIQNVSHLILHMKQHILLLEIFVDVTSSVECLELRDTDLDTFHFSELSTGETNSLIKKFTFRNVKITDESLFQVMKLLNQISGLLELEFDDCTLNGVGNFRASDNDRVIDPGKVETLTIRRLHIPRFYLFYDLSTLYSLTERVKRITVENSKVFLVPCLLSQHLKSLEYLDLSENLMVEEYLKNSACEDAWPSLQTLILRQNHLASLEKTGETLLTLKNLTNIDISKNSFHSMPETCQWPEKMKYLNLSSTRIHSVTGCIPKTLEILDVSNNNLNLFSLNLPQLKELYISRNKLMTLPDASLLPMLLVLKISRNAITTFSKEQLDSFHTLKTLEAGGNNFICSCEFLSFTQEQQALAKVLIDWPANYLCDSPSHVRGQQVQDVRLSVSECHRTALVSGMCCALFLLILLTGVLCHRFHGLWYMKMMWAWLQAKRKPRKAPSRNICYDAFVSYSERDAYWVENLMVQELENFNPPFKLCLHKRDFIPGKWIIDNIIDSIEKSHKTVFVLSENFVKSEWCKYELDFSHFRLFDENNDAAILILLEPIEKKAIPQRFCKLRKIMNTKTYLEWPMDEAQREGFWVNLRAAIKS
T1 sequence (Q9Y2C9 whole entry): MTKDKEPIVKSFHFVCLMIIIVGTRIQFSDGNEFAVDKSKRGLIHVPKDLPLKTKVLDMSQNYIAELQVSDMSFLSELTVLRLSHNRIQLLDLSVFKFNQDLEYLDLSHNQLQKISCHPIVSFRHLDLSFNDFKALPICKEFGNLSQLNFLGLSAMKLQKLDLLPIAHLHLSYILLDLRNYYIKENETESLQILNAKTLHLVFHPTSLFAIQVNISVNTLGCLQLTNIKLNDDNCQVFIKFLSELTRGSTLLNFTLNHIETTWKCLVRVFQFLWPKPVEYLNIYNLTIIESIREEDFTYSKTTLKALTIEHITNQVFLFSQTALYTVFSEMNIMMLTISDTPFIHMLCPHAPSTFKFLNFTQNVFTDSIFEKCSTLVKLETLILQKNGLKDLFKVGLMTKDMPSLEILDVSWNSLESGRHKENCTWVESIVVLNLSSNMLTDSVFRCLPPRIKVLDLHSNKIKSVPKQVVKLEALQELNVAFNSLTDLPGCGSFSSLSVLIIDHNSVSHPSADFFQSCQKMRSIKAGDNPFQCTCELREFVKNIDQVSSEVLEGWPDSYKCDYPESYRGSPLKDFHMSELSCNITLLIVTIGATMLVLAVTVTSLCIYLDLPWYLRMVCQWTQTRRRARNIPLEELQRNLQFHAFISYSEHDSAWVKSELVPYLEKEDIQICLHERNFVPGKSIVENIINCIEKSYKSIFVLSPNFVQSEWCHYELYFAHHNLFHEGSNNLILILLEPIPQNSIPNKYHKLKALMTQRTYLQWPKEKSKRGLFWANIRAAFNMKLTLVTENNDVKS

[2] = target: T1, TLR2/TLR6; experiment: Agonist activity at TLR2/TLR6 in human PBMC cells assessed as increase in IL-10 production at 0.1 ug/ml incubated for 24 hrs; assay type: cell-based; conditions: filed as agonist, dose 0.1 µg/ml
[3] = target: T1, TLR2/TLR6; experiment: Agonist activity at TLR2/TLR6 in human PBMC cells assessed as increase in TNF-alpha production at 0.1 ug/ml incubated for 24 hrs; assay type: cell-based; conditions: filed as agonist, dose 0.1 µg/ml
[4] = target: T1, TLR2/TLR6; experiment: Agonist activity at TLR2/TLR6 in human PBMC cells assessed as increase in IL-6 production at 0.1 ug/ml incubated for 24 hrs; assay type: cell-based; conditions: filed as agonist, dose 0.1 µg/ml
[5] = target: T2, TLR2/TLR6 (Mus musculus) (UniProt Q9QUN7+Q9EPW9); experiment: Agonist activity at TLR2/TLR6 in C57BL/6 mouse spleen B cells assessed as increase in CD86 expression at 10 to 0.1 ug/ml incubated for 24 hrs by fluorescence based flow cytometric analysis; assay type: tissue-based; conditions: B cell, filed as agonist, dose 10-0.1 µg/ml
[6] = target: T2, TLR2/TLR6 (Mus musculus); experiment: Agonist activity at TLR2/TLR6 in C57BL/6 mouse spleen dendritic cells assessed as increase in CD86 expression at 10 to 0.1 ug/ml incubated for 24 hrs by fluorescence based flow cytometric analysis; assay type: tissue-based; conditions: Dendritic cell, filed as agonist, dose 10-0.1 µg/ml
[7] = target: T2, TLR2/TLR6 (Mus musculus); experiment: Agonist activity at TLR2/TLR6 in C57BL/6 mouse spleen B cells assessed as increase in CD40 expression at 10 to 0.1 ug/ml incubated for 24 hrs by fluorescence based flow cytometric analysis; assay type: tissue-based; conditions: B cell, filed as agonist, dose 10-0.1 µg/ml
[8] = target: T2, TLR2/TLR6 (Mus musculus); experiment: Agonist activity at TLR2/TLR6 in C57BL/6 mouse spleen dendritic cells assessed as increase in CD40 expression at 10 to 0.1 ug/ml incubated for 24 hrs by fluorescence based flow cytometric analysis; assay type: tissue-based; conditions: Dendritic cell, filed as agonist, dose 10-0.1 µg/ml
[9] = tested on: Mus musculus; experiment: Immuno-adjuvant activity in C57BL/6 mouse immunized with recombinant hepatitis B surface antigen assessed as increase in anti-HBs antibody at 10 ug, IM administered twice 2 weeks apart by ELISA analysis; assay type: functional, organism-based; conditions: dose 10.0 µg
[10] = target: T2, TLR2/TLR6 (Mus musculus); experiment: Agonist activity at TLR2/TLR6 in C57BL/6 mouse spleen B cells assessed as increase in CD40 expression incubated for 24 hrs by fluorescence based flow cytometric analysis; assay type: tissue-based; conditions: B cell, filed as agonist, dose 10-0.1 µg/ml, DDE = dose-dependent effect
[11] = target: T2, TLR2/TLR6 (Mus musculus); experiment: Agonist activity at TLR2/TLR6 in C57BL/6 mouse spleen dendritic cells assessed as increase in CD40 expression incubated for 24 hrs by fluorescence based flow cytometric analysis; assay type: tissue-based; conditions: Dendritic cell, filed as agonist, dose 10-0.1 µg/ml, DDE = dose-dependent effect
[12] = target: T2, TLR2/TLR6 (Mus musculus); experiment: Agonist activity at TLR2/TLR6 in C57BL/6 mouse spleen dendritic cells assessed as increase in CD86 expression incubated for 24 hrs by fluorescence based flow cytometric analysis; assay type: tissue-based; conditions: Dendritic cell, filed as agonist, dose 10-0.1 µg/ml, DDE = dose-dependent effect
[13] = tested on: Mus musculus; experiment: Protection against influenza A/California/04/2009 virus-challenged C57BL/6 mouse assessed as effect on survival at 10 ug, IM administered twice 2 weeks apart along with recombinant influenza A/California/04/2009 HA protein immunization; assay type: functional, organism-based; conditions: dose 10.0 µg
[14] = tested on: Mus musculus; experiment: Immuno-adjuvant activity in C57BL/6 mouse immunized with recombinant influenza A/California/04/2009 HA protein assessed as increase in anti-HAs antibody at 10 ug, IM administered twice 2 weeks apart by ELISA analysis; assay type: functional, organism-based; conditions: dose 10.0 µg
[15] = tested on: Mus musculus; experiment: Protection against influenza A/California/04/2009 virus-challenged C57BL/6 mouse assessed as effect on body weight at 10 ug, IM administered twice 2 weeks apart along with recombinant influenza A/California/04/2009 HA protein immunization; assay type: functional, organism-based; conditions: dose 10.0 µg
[16] = tested on: Mus musculus; experiment: Immuno-adjuvant activity in C57BL/6 mouse immunized with recombinant hepatitis B surface antigen assessed as increase in IgG2/IgG1 ratio at 10 ug, IM administered twice 2 weeks apart by ELISA analysis; assay type: functional, organism-based; conditions: dose 10.0 µg
[17] = target: T2, TLR2/TLR6 (Mus musculus); experiment: Agonist activity at TLR2/TLR6 in C57BL/6 mouse spleen B cells assessed as increase in CD86 expression incubated for 24 hrs by fluorescence based flow cytometric analysis; assay type: tissue-based; conditions: B cell, filed as agonist, dose 10-0.1 µg/ml, DDE = dose-dependent effect

Work on `CCCCCCCCCCCCCCCC(=O)OCC(CSC[C@H](NC(=O)OC(C)(C)C)C(=O)N[C@@H](COC(C)(C)C)C(=O)OC)OC(=O)CCCCCCCCCCCCCCC` (mixture of isomers) yielded an EC50 [1] of 5640 nM.

Work on `CCCCCCCCCCCCCCCC(=O)OC[C@@H](CSC[C@H](NC(=O)OC(C)(C)C)C(=O)N[C@@H](COC(C)(C)C)C(=O)OC)OC(=O)CCCCCCCCCCCCCCC` yielded an EC50 [1] of 4270 nM.

With `CCCCCCCCCCCCCCCC(=O)OC[C@@H](CSC[C@H](NC(C)=O)C(=O)N[C@@H](CO)C(=O)OC)OC(=O)CCCCCCCCCCCCCCC` the Activity [2] was “Active”, the Activity [3] was “Active” and the EC50 [1] was 252 nM. The Activity [4] was “Active”.

`CCCCCCCCCCCCCCCC(=O)N[C@@H](CSC[C@@H](COC(=O)CCCCCCCCCCCCCCC)OC(=O)CCCCCCCCCCCCCCC)C(=O)N[C@@H](CO)C(=O)N[C@@H](CCCCN)C(=O)N[C@@H](CCCCN)C(=O)N[C@@H](CCCCN)C(=O)N[C@@H](CCCCN)C(=O)O` (Palmitoyl-C(Propyl(2R-PamO,3-PamO))SKKKK-OH) was tested, and the Activity [2] was “Active”, the Activity [5] was “Active” and the Activity [3] was “Active”. The Activity [6] was “Active”, the Activity [7] was “Active” and the EC50 [1] was 19.3 nM. The Activity [8] was “Active”, the Activity [9] was “Active” and the Activity [4] was “Active”.

In the case of `CCCCCCCCCCCCCCCC(=O)OC[C@H](CSC[C@H](N)C(=O)N[C@@H](CO)C(=O)OC)OC(=O)CCCCCCCCCCCCCCC`, the Activity [2] is reported as “Active”, the Activity [3] is reported as “Active” and the Activity [10] is reported as “Dde”. For the same compound, the EC50 [1] was 0.4 nM, the Activity [11] was “Dde” and the Activity [12] was “Dde”. For the same compound, the Activity [13] was “Active”, the Activity [14] was “Active” and the Activity [15] was “Active”. For the same compound, the Activity [9] was “Active”, the Activity [16] was “Active” and the Activity [4] was “Active”. The Activity [17] was “Dde”.

With `CCCCCCCCCCCCCCCC(=O)OC[C@H](CSC[C@H](NC(=O)OC(C)(C)C)C(=O)N[C@@H](COC(C)(C)C)C(=O)OC)OC(=O)CCCCCCCCCCCCCCC` the Activity [5] was “Active”, the Activity [6] was “Active” and the EC50 [1] was 5870 nM.

In the case of `CCCCCCCCCCCCCCCC(=O)OCC(CSC[C@H](NC(C)=O)C(=O)N[C@@H](CO)C(=O)OC)OC(=O)CCCCCCCCCCCCCCC` (mixture of isomers), the Activity [2] is reported as “Active”, the Activity [3] is reported as “Active” and the EC50 [1] is reported as 5 nM. For the same compound, the Activity [4] was “Active”.

`CCCCCCCCCCCCCCCC(=O)OC[C@@H](CSC[C@H](N)C(=O)N[C@@H](CO)C(=O)OC)OC(=O)CCCCCCCCCCCCCCC` was tested, and the Activity [10] was “Dde”, the EC50 [1] was 134 nM and the Activity [11] was “Dde”. For the same compound, the Activity [12] was “Dde” and the Activity [17] was “Dde”.

For `CCCCCCCCCCCCCCCC(=O)OC[C@H](CSC[C@H](N)C(=O)N[C@@H](CO)C(=O)N[C@@H](CCCCN)C(=O)N[C@@H](CCCCN)C(=O)N[C@@H](CCCCN)C(=O)N[C@@H](CCCCN)C(=O)O)OC(=O)CCCCCCCCCCCCCCC` (H-C(Propyl(2R-PamO,3-PamO))SKKKK-OH), the Activity [2] was “Active”, the Activity [5] was “Active” and the Activity [3] was “Active”. The Activity [6] was “Active”, the Activity [7] was “Active” and the EC50 [1] was 0.3 nM. For the same compound, the Activity [8] was “Active”, the Activity [9] was “Active” and the Activity [4] was “Active”.

For `CCCCCCCCCCCCCCCC(=O)OC[C@H](CSC[C@H](NC(C)=O)C(=O)N[C@@H](CO)C(=O)OC)OC(=O)CCCCCCCCCCCCCCC`, the Activity [2] was “Active”, the Activity [3] was “Active” and the EC50 [1] was 0.8 nM. The Activity [13] was “Active”, the Activity [14] was “Active” and the Activity [15] was “Active”. The Activity [9] was “Active”, the Activity [16] was “Active” and the Activity [4] was “Active”.

`CCCCCCCCCCCCCCCC(=O)OCC(CSC[C@H](N)C(=O)N[C@@H](CO)C(=O)OC)OC(=O)CCCCCCCCCCCCCCC` (mixture of isomers) was tested, and the Activity [2] was “Active”, the Activity [3] was “Active” and the EC50 [1] was 1 nM. For the same compound, the Activity [13] was “Active”, the Activity [14] was “Active” and the Activity [15] was “Active”. The Activity [4] was “Active”.

— ChEMBL document CHEMBL5104121, “Stereoisomeric Pam2CS based TLR2 agonists: synthesis, structural modelling and activity as vaccine adjuvants” (RSC Med Chem, 2022)
